Results taken from patent publication EP4707280A1, “1,4-CINEOLE DERIVATIVE AND INTERMEDIATE THEREOF, HERBICIDE CONTAINING SAID DERIVATIVE AS ACTIVE INGREDIENT, METHOD FOR USING HERBICIDE, AND METHOD FOR PREPARING AGROCHEMICAL COMPOSITION” (HOKKO CHEMICAL INDUSTRY CO., LTD., priority 2023, dated 2024).

How the values were obtained:
Type in all cases: in vivo
[1] = system: Echinochloa crus-galli var. formosensis; test: Test Example 1: herbicidal effect test by soil application in paddy rice; conditions: 120 g active ingredient per 10 ares, applied immediately after sowing, flooded pots, 14 days after application; for pest or weed control at 1200 g/ha: Echinochloa crus-galli, soil, 336 h, read-out: weed inhibition rate
Summary of the method: (§1)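 Paddy soil in Wagner pots (1/10,000 acre) was fertilized (N:P:K 16:16:16) and puddled, then weed seeds were sown 0–1 cm deep, 30 each. Pots were flooded to ~3 cm and kept in a glass greenhouse. Emulsifiable concentrate diluted in water was dropped on immediately after sowing at 120 g a.i. per 10 ares.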

Scirpus juncoides [2] = test: as above; conditions: 120 g active ingredient per 10 ares, applied immediately after sowing, flooded pots, 14 days after application; for pest or weed control at 1200 g/ha: Schoenoplectiella juncoides, soil, 336 h, read-out: weed inhibition rate
Summary of the method: as §1

[3] = system: Echinochloa crus-galli var. formosensis; test: Test Example 2: herbicidal effect test by application during growth period of paddy rice; conditions: 120 g per 10 ares, applied seven days after sowing, flooded pots, 14 days after application; for inhibition at 1200 g/ha: Echinochloa crus-galli, read-out: weed inhibition rate
Summary of the method: (§2)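 Paddy soil in flooded pots (water depth about 3 cm) was sown with weed seeds and kept in a glass greenhouse. Seven days after sowing, a diluted emulsifiable concentrate was applied by dropper at 120 g active ingredient per 10 ares. Weed inhibition was evaluated 14 days after application, in duplicate.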

Scirpus juncoides [4] = test: as above; conditions: 120 g per 10 ares, applied seven days after sowing, flooded pots, 14 days after application; for inhibition at 1200 g/ha: Schoenoplectiella juncoides, read-out: weed inhibition rate
Summary of the method: as §2

Digitaria ciliaris [5] = test: Test Example 3: herbicidal effect test by soil application in upland field; conditions: 120 g per 10 ares, sprayed one day after sowing, 14 days after application; for inhibition at 1200 g/ha: Digitaria ciliaris, read-out: weed inhibition rate
Summary of the method: (§3)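 Pre-emergence test: seeds mixed into top 1 cm of alluvial loam upland soil in pots; emulsifiable concentrate diluted in water sprayed on soil one day after sowing at 100 L/10 a, 120 g a.i./10 a. Weed inhibition rate (%) scored at 14 days, in duplicate.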

Echinochloa crus-galli [6] = test: as above; conditions: 120 g per 10 ares, sprayed one day after sowing, 14 days after application; for inhibition at 1200 g/ha: Echinochloa crus-galli, read-out: weed inhibition rate
Summary of the method: as §3

Digitaria ciliaris [7] = test: Test Example 4: herbicidal effect test by stem and leaf treatment in upland field; conditions: 120 g per 10 ares, sprayed seven days after sowing, upland soil, 14 days after application; for inhibition at 1200 g/ha: Digitaria ciliaris, read-out: weed inhibition rate
Echinochloa crus-galli [8] = test: as above; conditions: 120 g per 10 ares, sprayed seven days after sowing, upland soil, 14 days after application; for inhibition at 1200 g/ha: Echinochloa crus-galli, read-out: weed inhibition rate

CC(C)[C@]12CC(OCc3ccccc3OC(F)(F)F)[C@](C)(C[C@@H]1Cl)O2 (mixture of isomers) [1-627, (1R,2S,4S,SR)-2-chloro-1-isopropyl-4-methyl-5-[[2-(trifluoromethoxy)phenyl]methoxy]-7-oxabicyclo[2.2.1]heptane]
≥ 80%: pest or weed control at 1200 g/ha [1] | pest or weed control at 1200 g/ha (Scirpus juncoides [2]) | inhibition at 1200 g/ha [3] | inhibition at 1200 g/ha (Scirpus juncoides [4])

CC(=O)O[C@H]1C[C@]2(C)O[C@@]1(C(C)C)C[C@H]2OCc1ccccc1F (racemic) [1-480, [(1R,2S,4S,SR)-5-[(2-fluorophenyl)methoxy]-4-methyl-1-isopropyl-7-oxabicyclo[2.2.1]heptan-2-yl]acetate]
≥ 80%: weed inhibition rate [1] | weed inhibition rate (Scirpus juncoides [2]) | weed inhibition rate [3] | weed inhibition rate (Scirpus juncoides [4]) | weed inhibition rate (Digitaria ciliaris [5]) | weed inhibition rate (Echinochloa crus-galli [6]) | weed inhibition rate (Digitaria ciliaris [7]) | weed inhibition rate (Echinochloa crus-galli [8])

CC(C)[C@]12C[C@@H](OCc3ccccc3C(F)(F)F)[C@](C)(C[C@@H]1Cl)O2 [1-640, (1R,2S,4S,5R)-2-chloro-1-isopropyl-4-methyl-5-[[2-(trifluoromethyl)phenyl]methoxy]-7-oxabicyclo[2.2.1]heptane]
≥ 80%: pest or weed control at 1200 g/ha [1] | pest or weed control at 1200 g/ha (Scirpus juncoides [2]) | inhibition at 1200 g/ha [3] | inhibition at 1200 g/ha (Scirpus juncoides [4])

Cc1noc(C)c1CO[C@@H]1C[C@]2(C(C)C)O[C@@]1(C)C[C@@H]2Cl [1-663, 4-[[(1S,2R,4R,5S)-5-chloro-4-isopropyl-1-methyl-7-oxabicyclo[2.2.1]heptan-2-yl]oxymethyl]-3,5-dimethyl-isoxazole]
≥ 80%: pest or weed control at 1200 g/ha [1] | pest or weed control at 1200 g/ha (Scirpus juncoides [2]) | inhibition at 1200 g/ha [3] | inhibition at 1200 g/ha (Scirpus juncoides [4])

CC(C)[C@]12C[C@@H](OCc3ccccc3OC(F)(F)F)[C@](C)(C[C@@H]1I)O2 [1-750, (1R,2S,4S,5R)-2-iodo-1-isopropyl-4-methyl-5-[[2-(trifluoromethoxy)phenyl]methoxy]-7-oxabicyclo[2.2.1]heptane]
≥ 80%: pest or weed control at 1200 g/ha [1] | pest or weed control at 1200 g/ha (Scirpus juncoides [2]) | inhibition at 1200 g/ha [3] | inhibition at 1200 g/ha (Scirpus juncoides [4])

CC(C)[C@]12C[C@@H](OCc3ccccc3C(F)(F)F)[C@](C)(C[C@@H]1I)O2 [1-765, (1R,2S,4S,5R)-2-iodo-1-isopropyl-4-methyl-5-[[2-(trifluoromethyl)phenyl]methoxy]-7-oxabicyclo[2.2.1]heptane]
≥ 80%: pest or weed control at 1200 g/ha [1] | pest or weed control at 1200 g/ha (Scirpus juncoides [2]) | inhibition at 1200 g/ha [3] | inhibition at 1200 g/ha (Scirpus juncoides [4])

Cc1noc(C)c1CO[C@@H]1C[C@]2(C(C)C)O[C@@]1(C)C[C@@H]2I [1-790, 4-[[(1S,2R,4R,5S)-5-iodo-4-isopropyl-1-methyl-7-oxabicyclo [2.2.1]heptane-2-yl]oxymethyl]-3,5-dimethyl-isoxazole]
≥ 80%: pest or weed control at 1200 g/ha [1] | pest or weed control at 1200 g/ha (Scirpus juncoides [2]) | inhibition at 1200 g/ha [3] | inhibition at 1200 g/ha (Scirpus juncoides [4])

COC(=O)c1ccccc1CO[C@H]1C[C@@]2(C(C)C)O[C@]1(C)C[C@H]2I [1-1115, methyl 2-[[(1R,2S,4S,5R)-5-iodo-1-methyl-4-isopropyl-7-oxabicyclo[2.2.1]heptan-2-yl]oxymethyl]benzoate]
≥ 80%: pest or weed control at 1200 g/ha (Scirpus juncoides [2]) | inhibition at 1200 g/ha (Scirpus juncoides [4])

CC(C)[C@@]12C[C@H](OCc3ccccn3)[C@@](C)(C[C@H]1I)O2 [1-1126, 2-[[(1R,2S,4S,5R)-5-iodo-1-methyl-4-isopropyl-7-oxabicyclo[2.2.1]heptan-2-yl]oxymethyl]pyridine]
≥ 80%: pest or weed control at 1200 g/ha [1] | pest or weed control at 1200 g/ha (Scirpus juncoides [2]) | inhibition at 1200 g/ha [3] | inhibition at 1200 g/ha (Scirpus juncoides [4]) | inhibition at 1200 g/ha (Digitaria ciliaris [5]) | inhibition at 1200 g/ha (Echinochloa crus-galli [6]) | inhibition at 1200 g/ha (Digitaria ciliaris [7]) | inhibition at 1200 g/ha (Echinochloa crus-galli [8])

CC(C)C12CC(OCc3ccccc3C(F)(F)F)C(C)(CC1Cl)O2 (centres unmarked) [1-1301, 5-chloro-1-methyl-4-isopropyl-2-[[2-(trifluoromethyl)phenyl]methoxy]-7-oxabicyclo[2.2.1]heptane]
≥ 80%: pest or weed control at 1200 g/ha [1] | pest or weed control at 1200 g/ha (Scirpus juncoides [2]) | inhibition at 1200 g/ha [3] | inhibition at 1200 g/ha (Scirpus juncoides [4])

COC(=O)c1ccccc1COC1CC2(C(C)C)OC1(C)CC2Cl (centres unmarked) [1-1310, methyl 2-[(5-chloro-4-isopropyl-1-methyl-7-oxabicyclo[2.2.1]heptan-2-yl)oxymethyl]benzoate]
≥ 80%: pest or weed control at 1200 g/ha (Scirpus juncoides [2]) | inhibition at 1200 g/ha (Scirpus juncoides [4])

CC(C)C12CC(OCc3cccnc3)C(C)(CC1Cl)O2 (centres unmarked) [1-1321, 3-[(5-chloro-4-isopropyl-1-methyl-7-oxabicyclo[2.2.1]heptan-2-yl)oxymethyl]pyridine]
≥ 80%: pest or weed control at 1200 g/ha (Scirpus juncoides [2]) | inhibition at 1200 g/ha (Scirpus juncoides [4])

CC(C)C12CC(OCc3ccncc3)C(C)(CC1Cl)O2 (centres unmarked) [1-1322, 4-[(5-chloro-4-isopropyl-1-methyl-7-oxabicyclo[2.2.1]heptan-2-yl)oxymethyl]pyridine]
≥ 80%: pest or weed control at 1200 g/ha (Scirpus juncoides [2]) | inhibition at 1200 g/ha (Scirpus juncoides [4])

Cc1noc(C)c1COC1CC2(C(C)C)OC1(C)CC2Cl (centres unmarked) [1-1325, 4-[(5-chloro-4-isopropyl-1-methyl-7-oxabicyclo[2.2.1]heptan-2-yl)oxymethyl]-3,5-dimethyl-isoxazole]
≥ 80%: pest or weed control at 1200 g/ha [1] | pest or weed control at 1200 g/ha (Scirpus juncoides [2]) | inhibition at 1200 g/ha [3] | inhibition at 1200 g/ha (Scirpus juncoides [4])

CC#CCO[C@@H]1C[C@]2(C(C)C)O[C@@]1(C)CC2Br (stereo partly drawn) [1-1336, (1S,2R,4R)-5-bromo-2-but-2-ynoxy-1-methyl-4-isopropyl-7-oxabicyclo[2.2.1]heptane]
≥ 80%: pest or weed control at 1200 g/ha [1] | pest or weed control at 1200 g/ha (Scirpus juncoides [2]) | inhibition at 1200 g/ha [3] | inhibition at 1200 g/ha (Scirpus juncoides [4]) | inhibition at 1200 g/ha (Digitaria ciliaris [5]) | inhibition at 1200 g/ha (Echinochloa crus-galli [6]) | inhibition at 1200 g/ha (Digitaria ciliaris [7]) | inhibition at 1200 g/ha (Echinochloa crus-galli [8])

CC(C)C12CC(OCc3ccsc3)C(C)(CC1Br)O2 (centres unmarked) [1-1390, 5-bromo-1-methyl-4-isopropyl-2-(thiophen-3-ylmethoxy)-7-oxabicyclo[2.2.1]heptane]
≥ 80%: pest or weed control at 1200 g/ha [1] | pest or weed control at 1200 g/ha (Scirpus juncoides [2]) | inhibition at 1200 g/ha [3] | inhibition at 1200 g/ha (Scirpus juncoides [4]) | inhibition at 1200 g/ha (Digitaria ciliaris [5]) | inhibition at 1200 g/ha (Echinochloa crus-galli [6]) | inhibition at 1200 g/ha (Digitaria ciliaris [7]) | inhibition at 1200 g/ha (Echinochloa crus-galli [8])

CC(C)C12CC(OCc3ccccc3OC(F)(F)F)C(C)(CC1I)O2 (centres unmarked) [1-1418, 2-iodo-1-isopropyl-4-methyl-5-[[2-(trifluoromethoxy)phenyl]methoxy]-7-oxabicyclo[2.2.1]heptane]
≥ 80%: pest or weed control at 1200 g/ha [1] | pest or weed control at 1200 g/ha (Scirpus juncoides [2]) | inhibition at 1200 g/ha [3] | inhibition at 1200 g/ha (Scirpus juncoides [4])

CC(C)C12CC(OCc3ccccc3C(F)(F)F)C(C)(CC1I)O2 (centres unmarked) [1-1433, 2-iodo-1-isopropyl-4-methyl-5-[[2-(trifluoromethyl)phenyl]methoxy]-7-oxabicyclo[2.2.1]heptane]
≥ 80%: pest or weed control at 1200 g/ha [1] | pest or weed control at 1200 g/ha (Scirpus juncoides [2]) | inhibition at 1200 g/ha [3] | inhibition at 1200 g/ha (Scirpus juncoides [4])

COC(=O)c1ccccc1COC1CC2(C(C)C)OC1(C)CC2I (centres unmarked) [1-1442, methyl 2-[(5-iodo-4-isopropyl-1-methyl-7-oxabicyclo[2.2.1]heptan-2-yl)oxymethyl]benzoate]
≥ 80%: pest or weed control at 1200 g/ha (Scirpus juncoides [2]) | inhibition at 1200 g/ha (Scirpus juncoides [4])

C#CCO[C@H]1C[C@]2(C)O[C@@]1(C(C)C)C[C@H]2OCc1ccccc1F [1-1607, (1S,2R,4R,5S)-2-[(2-fluorophenyl)methoxy]-1-methyl-4-isopropyl-5-prop-2-ynoxy-7-oxabicyclo[2.2.1]heptane]
≥ 80%: pest or weed control at 1200 g/ha [1] | pest or weed control at 1200 g/ha (Scirpus juncoides [2]) | inhibition at 1200 g/ha [3] | inhibition at 1200 g/ha (Scirpus juncoides [4]) | inhibition at 1200 g/ha (Digitaria ciliaris [5]) | inhibition at 1200 g/ha (Echinochloa crus-galli [6]) | inhibition at 1200 g/ha (Digitaria ciliaris [7]) | inhibition at 1200 g/ha (Echinochloa crus-galli [8])

CC(C)[C@]12C=C[C@](C)(O1)[C@H](OCc1c(Cl)cccc1Cl)C2 [3-732, (1R,4S,5R)-5-[(2,6-dichlorophenyl)methoxy]-4-methyl-1-isopropyl-7-oxabicyclo[2.2.1]hept-2-ene]
≥ 80%: pest or weed control at 1200 g/ha [1] | pest or weed control at 1200 g/ha (Scirpus juncoides [2]) | inhibition at 1200 g/ha [3] | inhibition at 1200 g/ha (Scirpus juncoides [4]) | inhibition at 1200 g/ha (Digitaria ciliaris [5]) | inhibition at 1200 g/ha (Echinochloa crus-galli [6]) | inhibition at 1200 g/ha (Digitaria ciliaris [7]) | inhibition at 1200 g/ha (Echinochloa crus-galli [8])
